This passage reports IC50 results from patent publication US20230286928A1, “HETEROCYCLIC COMPOUNDS USEFUL IN THE TREATMENT OF DISEASE” (Epigen Biosciences, Inc., priority 2018, published 2023).

This experiment deals with T1, LPA1R (Homo sapiens, UniProt Q92633).
T1 construct: host or cells: LPA1R expressing cells (Millipore, GPCR Profiler)
T1 sequence (Q92633 whole entry): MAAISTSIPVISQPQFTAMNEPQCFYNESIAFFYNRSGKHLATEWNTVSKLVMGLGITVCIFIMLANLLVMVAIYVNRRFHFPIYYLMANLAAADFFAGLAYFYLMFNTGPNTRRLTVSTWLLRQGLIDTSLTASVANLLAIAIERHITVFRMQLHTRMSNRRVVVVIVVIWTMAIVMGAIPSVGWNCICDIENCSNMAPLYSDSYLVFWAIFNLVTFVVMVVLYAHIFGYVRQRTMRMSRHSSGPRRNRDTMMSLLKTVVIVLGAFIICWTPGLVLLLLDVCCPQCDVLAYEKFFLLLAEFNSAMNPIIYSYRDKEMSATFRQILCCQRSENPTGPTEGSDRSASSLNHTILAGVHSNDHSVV
The experiment is described as follows: Calcium flux assay: inhibition of LPA-stimulated Ca2+ flux (FLIPR, antagonist mode). The conditions noted are these: LPA1R Ca2+ flux functional assay, LPA1R expressing cells challenged with EC80 of LPA, read-out: LPA1 R Antagonist Activity. In kind it is cell-based. The procedure:
Inhibition of LPA-stimulated Ca^2+ flux was used to assess compound potency using FLIPR technology in a 96 well plate format. The assay buffer used was a modified Hanks Balanced Salt Solution (HBSS) where HBSS was supplemented to contain 20 mM HEPES and 2.5 mM Probenecid at pH7.4 (Millipore, GPCR Profiler®). LPA1R expressing cells (Millipore) were plated and prepared 24 hours prior to assay of test articles. Ca^2+ ion flux was assessed from fluorescence of a Fluo-based No Wash Ca^2+ dye. Antagonist data are generated from plates with LPA concentrations sufficient to generate 80% efficacy [EC80]. Percentage inhibition was calculated from a reduction of efficacy according to concentration of compounds of Formula I-VI. For dose responses the inhibition data was used to calculate compound IC50.
The agonist assay was conducted on a FLIPR^TETRA instrument where the test compound(s), vehicle controls, and reference agonist were added to the assay plate after a fluorescence baseline was established. The agonist assay was a total of 180 seconds and was used to assess each compound's ability to activate each GPCR assayed. Upon completion of the agonist assay, the assay plate was removed from the FLIPR^TETRA and incubated at 25° C. for seven (7) minutes. After the incubation period, the assay plate was placed back in the FLIPR^TETRA and the antagonist assay was initiated.
Antagonist Assay: Using EC80 potency values determined during the agonist assay, all pre-incubated sample compound wells were challenged with EC80 concentration of reference agonist after establishment of a fluorescence baseline. The antagonist assay was conducted using the same assay plate that was used for the agonist assay. The antagonist assay was conducted on a FLIPR^TETRA instrument where 9 vehicle controls and EC80 concentration of reference agonist were added to appropriate wells. The antagonist assay was a total of 180 seconds and was used to assess each compound's ability to inhibit each GPCR assayed.
Data Processing: All assay plate data were subjected to appropriate baseline corrections. After baseline corrections were applied, maximum fluorescence values were exported and data processed to calculate percentage activation (relative to Emax reference agonist and vehicle control values), percentage inhibition (relative to EC80 and vehicle control values), and additional statistical values (i.e. Z′, percentage variation between replicate data values) to assess the quality of each plate. Where assay plate data were rejected, additional experiments were conducted. All dose response curves were generated using GraphPad Prism. The curves were fit by utilizing “Sigmoidal Dose Response (Variable Slope)” equation where the bottom parameter was fixed to “0.” Where appropriate, the top parameter was fixed to “100” to better predict potency values when a full curve was not generated by the concentrations assayed.
Turning to `C[C@@H](OC(=O)Nc1c(Cl)cnn1-c1ccc(-c2ccc(C3(C(=O)NC#N)CC3)cc2)cc1)c1ccccc1` [Compound 24, (R)-1-phenylethyl (4-chloro-1-(4′-(1-(cyanocarbamoyl)cyclopropyl)-[1,1′-biphenyl]-4-yl)-1H-pyrazol-5-yl)carbamate], the IC50 lay within 1000 to 50000 nM.

For the molecule `C[C@@H](OC(=O)Nc1c(Cl)cnn1-c1ccc(-c2ccc(C3(C(=O)NC#N)CC3)cc2)cc1)c1ccccc1Cl` [Compound 25, (R)-1-(2-chlorophenyl)ethyl (4-chloro-1-(4′-(1-(cyanocarbamoyl)cyclopropyl)-[1,1′-biphenyl]-4-yl)-1H-pyrazol-5-yl)carbamate], the IC50 was in the range of 1000 to 50000 nM.

As to `C[C@@H](OC(=O)Nc1c(F)cnn1-c1ccc(-c2ccc(C3(C(=O)NC#N)CC3)cc2F)cc1)c1ccccc1Cl` [Compound 26, (R)-1-(2-chlorophenyl)ethyl (1-(4′-(1-(cyanocarbamoyl)cyclopropyl)-2′-fluoro-[1,1′-biphenyl]-4-yl)-4-fluoro-1H-pyrazol-5-yl)carbamate], the IC50 was less than 300 nM.

Turning to `C[C@@H](OC(=O)Nc1c(C#N)cnn1-c1ccc(-c2ccc(C(C)(C)C(=O)O)cc2)cc1)c1ccccc1Cl` [Compound 27, (R)-2-(4′-(5-(((1-(2-chlorophenyl)ethoxy)carbonyl)amino)-4-cyano-1H-pyrazol-1-yl)-[1,1′-biphenyl]-4-yl)-2-methylpropanoic acid], the IC50 was less than 300 nM.

Regarding `C[C@@H](OC(=O)Nc1c(C#N)cnn1-c1ccc(-c2ccc(C(C)(C)C(=O)O)cc2)cc1)c1ccccc1` [Compound 28, (R)-2-(4′-(4-cyano-5-(((1-phenylethoxy)carbonyl)amino)-1H-pyrazol-1-yl)-[1,1′-biphenyl]-4-yl)-2-methylpropanoic acid], the IC50 was less than 300 nM.
